Test results taken from patent publication US20220288045A1, “Stable Pharmaceutical Composition Comprising Esomeprazole And Sodium Bicarbonate” (Chong Kun Dang Pharmaceutical Corp., priority 2019, published 2022).
Like-named read-outs stand apart in the source and are kept apart here.

Experiments:
[1] = Stability test of esomeprazole and omeprazole according to pH (HPLC content in buffer solution); assay type: physicochemical; conditions: in % (unit assumed)
Experimental: After adding each 2 mL of 20 mg/mL strength of esomeprazole and omeprazole solutions to 100 mL of buffer solution, the content according to pH was analyzed, and the analysis method is as follows. <Analysis Method> A) Detector: Ultraviolet visible light absorption spectrometer (measurement wavelength: 280 nm) B) Column: Inertsil C8-3 (4.6×150 mm, 5 μm) or equivalent column C) Injection amount: 20 μl D) Flow rate: 1.5 mL/min E) Column temperature: constant temperature around 40° C. F) Sample temperature: constant temperature around 10° C.

[2] = aqueous solutions with 3 or less of a pH value; cited from earlier work
[3] = for pH: 200 mL artificial gastric juice + 200 mL purified water, 37° C.
Source text: To set the content of sodium bicarbonate, the drug release conditions and gastric juice conditions were set as follows.

COc1ccc2nc([S@@+]([O-])Cc3ncc(C)c(OC)c3C)[nH]c2c1 [S-omeprazole, (S)-5-methoxy-24(4-methoxy-3,5-dimethyl-2-pyridinyl)-methyllsulfinyl-1H-benzimidazole]
content according to pH ([1]; pH4.0, 5 min): 64.1 | content according to pH ([1]; pH4.0, 10 min): 31.0 | content according to pH ([1]; pH4.0, 15 min): 15.9 | content according to pH ([1]; pH4.0, 30 min): 6.9 | content according to pH ([1]; pH4.0, 45 min): 1.7 | content according to pH ([1]; pH4.0, 60 min): 0.9 | content according to pH ([1]; pH4.0, 120 min): 0.1 | content according to pH ([1]; pH6.0, 5 min): 74.4 | content according to pH ([1]; pH6.0, 10 min): 72.8 | content according to pH ([1]; pH6.0, 15 min): 71.0 | content according to pH ([1]; pH6.0, 30 min): 68.9 | content according to pH ([1]; pH6.0, 45 min): 66.3 | content according to pH ([1]; pH6.0, 60 min): 63.6 | content according to pH ([1]; pH6.0, 120 min): 54.9 | content according to pH ([1]; pH6.8, 5 min): 95.6 | content according to pH ([1]; pH6.8, 10 min): 90.8 | content according to pH ([1]; pH6.8, 15 min): 90.5 | content according to pH ([1]; pH6.8, 30 min): 89.7 | content according to pH ([1]; pH6.8, 45 min): 88.9 | content according to pH ([1]; pH6.8, 60 min): 88.3 | content according to pH ([1]; pH6.8, 120 min): 86.2 | content according to pH ([1]; pH7.0, 5 min): 99.6 | content according to pH ([1]; pH7.0, 10 min): 99.0 | content according to pH ([1]; pH7.0, 15 min): 99.3 | content according to pH ([1]; pH7.0, 30 min): 98.9 | content according to pH ([1]; pH7.0, 45 min): 98.7 | content according to pH ([1]; pH7.0, 60 min): 98.1 | content according to pH ([1]; pH7.0, 120 min): 96.8 | content according to pH ([1]; pH7.3, 5 min): 100.1 | content according to pH ([1]; pH7.3, 10 min): 100.1 | content according to pH ([1]; pH7.3, 15 min): 100.0 | content according to pH ([1]; pH7.3, 30 min): 100.0 | content according to pH ([1]; pH7.3, 45 min): 100.0 | content according to pH ([1]; pH7.3, 60 min): 100.0 | content according to pH ([1]; pH7.3, 120 min): 99.90 | content according to pH ([1]; pH7.5, 5 min): 99.4 | content according to pH ([1]; pH7.5, 10 min): 99.3 | content according to pH ([1]; pH7.5, 15 min): 99.2 | content according to pH ([1]; pH7.5, 30 min): 99.1 | content according to pH ([1]; pH7.5, 45 min): 99.3 | content according to pH ([1]; pH7.5, 60 min): 99.1 | content according to pH ([1]; pH7.5, 120 min): 98.2 | content according to pH ([1]; pH8.0, 15 min): 101.1 | content according to pH ([1]; pH8.0, 30 min): 100.9 | content according to pH ([1]; pH8.0, 45 min): 100.7 | content according to pH ([1]; pH8.0, 60 min): 100.7 | content according to pH ([1]; pH8.0, 120 min): 100.0 | decomposition half-life [2]: less than 10 minutes

O=C([O-])O.[Na+] [Sodium bicarbonate]
amount of sodium bicarbonate that can represent neutral pH by neutralizing 200 mL of artificial gastric juice ([3]; 200 mL artificial gastric juice): at least 600 mg | pH ([3]; Sodium bicarbonate 500 mg): 5.77 | pH ([3]; Sodium bicarbonate 600 mg): 6.51 | pH ([3]; Sodium bicarbonate 700 mg): 7.30 | pH ([3]; Sodium bicarbonate 800 mg): 7.30 | pH ([3]; Sodium bicarbonate 900 mg): 7.31 | pH ([3]; Sodium bicarbonate 1,000 mg): 7.37 | pH ([3]; Sodium bicarbonate 1,100 mg): 7.38 | pH ([3]; Sodium bicarbonate 1,200 mg): 7.38 | pH ([3]; Sodium bicarbonate 1,300 mg): 7.40
